Measurements from patent US8466188B2, “Use of spiro-oxindole compounds as therapeutic agents” (Xenon Pharmaceuticals Inc., priority 2006, dated 2013).

First: CN(C)c1ccc(-c2cccc3c2C2(COc4cc5c(cc42)OCO5)C(=O)N3Cc2ccc(C(F)(F)F)o2)cn1 (centres unmarked) [Example 4.7, 4′-[6-(dimethylamino)pyridin-3-yl]-1′-{[5-(trifluoromethyl)-2-furyl]methyl}spiro[furo[2,3-f][1,3]benzodioxole-7,3′-indol]-2′(1′H)-one]
Second: O=C1N(Cc2ccc(C(F)(F)F)o2)c2cccc(-c3ccoc3)c2C12COc1cc3c(cc12)CCO3 (centres unmarked) [Example 4.12, 4′-(3-furyl)-1′-{[5-(trifluoromethyl)-2-furyl]methyl}-5,6-dihydrospiro[benzo[1,2-b:5,4-b′]difuran-3,3′-indol]-2′(1′H)-one]
The melting point of the first is higher: 174 to 176 °C for the first, 167 to 169 °C for the second.

First: O=C1Nc2cccc(-c3cncnc3)c2C12COc1cc3c(cc12)OCO3 (centres unmarked) [Example 4.8, 4′-pyrimidin-5-ylspiro[furo[2,3-f][1,3]benzodioxole-7,3′-indol]-2′(1′H)-one]
Second: O=C1N(Cc2ccc(C(F)(F)F)o2)c2cccc(-c3cncnc3)c2C12COc1cc3c(cc12)CCO3 (centres unmarked) [Example 4.14, 4′-pyrimidin-5-yl-1′-{[5-(trifluoromethyl)-2-furyl]methyl}-5,6-dihydrospiro[benzo[1,2-b:5,4-b′]difuran-3,3′-indol]-2′(1′H)-one]
The melting point of the first is lower: 185 to 187 °C for the first, 263 to 266 °C for the second.

Compared with `O=C1N(Cc2ccccn2)c2cccc(-c3ccoc3)c2C12COc1cc3c(cc12)CCO3` (centres unmarked) [Example 4.9, 4′-(3-furyl)-1′-(pyridin-2-ylmethyl)-5,6-dihydrospiro[benzo[1,2-b:5,4-b′]difuran-3,3′-indol]-2′(1′H)-one], `O=C(CN1C(=O)C2(COc3cc4c(cc32)CCO4)c2c(-c3cncnc3)cccc21)Nc1ccccc1F` (centres unmarked) [Example 4.20, N-(2-fluorophenyl)-2-(2′-oxo-4′-pyrimidin-5-yl-5,6-dihydrospiro[benzo[1,2-b:5,4-b′]difuran-3,3′-indol]-1′(2′H)-yl)acetamide] is higher in melting point: 195 to 197 °C for the first, 229 to 230 °C for the second.

Compared with `CC(C)(C)OC(=O)N1CCC(CN2C(=O)C3(COc4cc5c(cc43)C(C)(C)CO5)c3ccccc32)CC1` (centres unmarked) [Example 10.18, tert-butyl 4-[(5,5-dimethyl-2′-oxo-5,6-dihydrospiro[benzo[1,2-b:5,4-b′]difuran-3,3′-indol]-1′(2′H)-yl)methyl]piperidine-1-carboxylate], `CC(C)(C)OC(=O)N1CCC(CN2C(=O)C3(COc4cc5c(cc43)CCO5)c3ccccc32)CC1` (centres unmarked) [Example 10.43, tert-butyl 4-[(2′-oxo-5,6-dihydrospiro[benzo[1,2-b:5,4-b′]difuran-3,3′-indol]-1′(2′H)-yl)methyl]piperidine 1-carboxylate] is higher in melting point: 65 to 75 °C for the first, 96 to 98 °C for the second.

Compared with `CC1(C)COc2cc3c(cc21)C1(CO3)C(=O)N(Cc2ccc(C(F)(F)F)o2)c2ccccc21` (centres unmarked) [Example 10.21, 5,5-dimethyl-1′-{[5-(trifluoromethyl)-2-furyl]methyl}-5,6-dihydrospiro[benzo[1,2-b:5,4-b′]difuran-3,3′-indol]-2′(1′H)-one], `Cc1ccc(CN2C(=O)C3(COc4cc5c(cc43)OCO5)c3ccccc32)o1` (centres unmarked) [Example 10.65, 1′-[(5-methyl-2-furyl)methyl]spiro[furo[2,3-f][1,3]benzodioxole-7,3′-indol]-2′(1′H)-one] is lower in melting point: 155 to 160 °C for the first, 117 to 119 °C for the second.

First: O=C1N(Cc2ccc(F)cc2Cl)c2ccccc2C12COc1cc3c(cc12)OCO3 (centres unmarked) [Example 10.30, 1′-(2-chloro-4-fluorobenzyl)spiro[furo[2,3-f][1,3]benzodioxole-7,3′-indol]-2′(1′H)-one]
Second: O=C1N(Cc2ccc(Cl)o2)c2ccccc2C12COc1cc3c(cc12)OCO3 (centres unmarked) [Example 10.62, 1′-[(5-chloro-2-furyl)methyl]spiro[furo[2,3-f][1,3]benzodioxole-7,3′-indol]-2′(1′H)-one]
The melting point of the first is higher: 174 to 175 °C for the first, 148 to 150 °C for the second.

First: O=C1N(CCCC2CC2)c2ccccc2C12COc1cc3c(cc12)OCO3 (centres unmarked) [Example 10.32, 1′-(3-cyclopropylpropyl)spiro[furo[2,3-f][1,3]benzodioxole-7,3′-indol]-2′(1′H)-one]
Second: CCCCN1C(=O)C2(COc3cc4c(cc32)OCO4)c2ccccc21 (centres unmarked) [Example 10.33, 1′-butylspiro[furo[2,3-f][1,3]benzodioxole-7,3′-indol]-2′(1′H)-one]
The melting point of the first is lower: 111 to 113 °C for the first, 119 to 120 °C for the second.

Compared with `Cc1oncc1CN1C(=O)C2(COc3cc4c(cc32)OCO4)c2ccccc21` (centres unmarked) [Example 10.34, 1′-[(5-methylisoxazol-4-yl)methyl]spiro[furo[2,3-f][1,3]benzodioxole-7,3′indol]-2′(1′H)-one], `Cc1noc(C)c1CN1C(=O)C2(COc3cc4c(cc32)OCO4)c2ccccc21` (centres unmarked) [Example 10.51, 1′-[(3,5-dimethylisoxazol-4-yl)methyl]spiro[furo[2,3-f][1,3]benzodioxole-7,3′-indol]-2′(1′H)-one] is higher in melting point: 159 to 161 °C for the first, 165 to 167 °C for the second.

First: O=C1N(CC2CCOCC2)c2ccccc2C12COc1cc3c(cc12)OCO3 (centres unmarked) [Example 10.35, 1′-(tetrahydro-2H-pyran-4-ylmethyl)spiro[furo[2,3-f][1,3]benzodioxole-7,3′-indol]-2′(1′H)-one]
Second: CCCN1C(=O)C2(COc3cc4c(cc32)OCO4)c2ccccc21 (centres unmarked) [Example 10.40, 1′-Propylspiro[furo[2,3-f][1,3]benzodioxole-7,3′-indol]-2′(1′H)-one]
The melting point of the first is lower: 142 to 144 °C for the first, 158 to 160 °C for the second.

Compared with `O=C1N(Cc2ccccc2OC(F)(F)F)c2ccccc2C12COc1cc3c(cc12)OCO3` (centres unmarked) [Example 10.36, 1′[2-(trifluoromethoxy)benzyl]spiro[furo[2,3-f][1,3]benzodioxole-7,3′-indol]-2′(1′H)-one], `O=C1N(Cc2cccc(OC(F)(F)F)c2)c2ccccc2C12COc1cc3c(cc12)OCO3` (centres unmarked) [Example 10.37, 1′[3-(trifluoromethoxy)benzyl]spiro[furo[2,3-f][1,3]benzodioxole-7,3′-indol]-2′(1′H)-one] is lower in melting point: 130 to 135 °C for the first, 88 to 91 °C for the second.

First: O=C1N(Cc2ccc(OC(F)(F)F)cc2)c2ccccc2C12COc1cc3c(cc12)OCO3 (centres unmarked) [Example 10.38, 1′[4-(trifluoromethoxy)benzyl]spiro[furo[2,3-f][1,3]benzodioxole-7,3′-indol]-2′(1′H)-one]
Second: O=C1N(Cc2ccc(Cl)s2)c2ccccc2C12COc1cc3c(cc12)OCO3 (centres unmarked) [Example 10.67, 1′-[(5-chloro-2-thienyl)methyl]spiro[furo[2,3-f][1,3]benzodioxole-7,3′-indol]-2′(1′H)-one]
The melting point of the first is lower: 99 to 101 °C for the first, 145 to 146 °C for the second.

First: CN1C(=O)C2(COc3cc4c(cc32)OCO4)c2ccccc21 (centres unmarked) [Example 10.39, 1′-methylspiro[furo[2,3-f][1,3]benzodioxole-7,3′-indol]-2′(1′H)-one]
Second: O=C1N(CCCCl)c2ccccc2C12COc1cc3c(cc12)OCO3 (centres unmarked) [Example 10.57, 1′-(3-chloropropyl)spiro[furo[2,3-f][1,3]benzodioxole-7,3′-indol]-2′(1′H)-one]
The melting point of the first is lower: 142 to 144 °C for the first, 144 to 146 °C for the second.

First: COc1ccc(CN2C(=O)C3(COc4cc5c(cc43)CCO5)c3ccccc32)cc1 (centres unmarked) [Example 10.46, 1′-(4-methoxybenzyl)-5,6-dihydrospiro[benzo[1,2-b:5,4-b′]difuran-3,3′-indol]-2′(1′H)-one]
Second: O=C1N(Cc2ccco2)c2ccccc2C12COc1cc3c(cc12)OCO3 (centres unmarked) [Example 10.52, 1′-(2-furylmethyl)spiro[furo[2,3-f][1,3]benzodioxole-7,3′-indol]-2′(1′H)-one]
The melting point of the first is higher: 120 to 121 °C for the first, 110 to 112 °C for the second.

First: O=C1N(Cc2ccc(C(F)(F)F)o2)c2cccc(Br)c2C12COc1cc3c(cc12)CCO3 (centres unmarked) [Example 10.48, 4′-bromo-1′-{[5-(trifluoromethyl)-2-furyl]methyl}-5,6-dihydrospiro[benzo[1,2-b:5,4-b′]difuran-3,3′-indol]-2′(1′H)-one]
Second: O=C1N(Cc2sc(C(F)(F)F)cc2O)c2ccccc2C12COc1cc3c(cc12)OCO3 (centres unmarked) [Example 10.68, 1′-{[3-hydroxy-5-(trifluoromethyl)-2-thienyl]methyl}spiro[furo[2,3-f][1,3]benzodioxole-7,3′-indol]-2′(1′H)-one]
The melting point of the first is lower: 182 to 184 °C for the first, 225 to 227 °C for the second.

First: O=C1N(Cc2ccc(-c3cccc(Cl)c3)o2)c2ccccc2C12COc1cc3c(cc12)OCO3 (centres unmarked) [Example 10.56, 1′-{[5-(3-chlorophenyl)-2-furyl]methyl}spiro[furo[2,3-f][1,3]benzodioxole-7,3′-indol]-2′(1′H)-one]
Second: O=C1N(Cc2ccc(-c3ccccc3Cl)o2)c2ccccc2C12COc1cc3c(cc12)OCO3 (centres unmarked) [Example 10.64, 1′-{[5-(2-chlorophenyl)-2-furyl]methyl}spiro[furo[2,3-f][1,3]benzodioxole-7,3′-indol]-2′(1′H)-one]
The melting point of the first is higher: 205 to 207 °C for the first, 148 to 150 °C for the second.

First: CC(C)c1nc(CN2C(=O)C3(COc4cc5c(cc43)OCO5)c3ccccc32)co1 (centres unmarked) [Example 10.58, 1′-[(2-isopropyl-1,3-oxazol-4-yl)methyl]spiro[furo[2,3-f][1,3]benzodioxole-7,3′-indol]-2′(1′H)-one]
Second: O=C1N(Cc2cnc(Cl)s2)c2ccccc2C12COc1cc3c(cc12)OCO3 (centres unmarked) [Example 10.70, 1′[(2-chloro-1,3-thiazol-5-yl)methyl]spiro[furo[2,3-f][1,3]benzodioxole-7,3′-indol]-2′(1′H)one]
The melting point of the first is lower: 118 to 120 °C for the first, 195 to 198 °C for the second.

First: O=C1N(Cc2ccc(Cl)s2)c2ccc(F)cc2C12COc1cc3c(cc12)OCO3 (centres unmarked) [Example 10.61, 1′-[(5-chloro-2-thienyl)methyl]-5′-fluorospiro[furo[2,3-f][1,3]benzodioxole-7,3′-indol]-2′(1′H)-one]
Second: CN1C(C)(C)CC(O)(CN2C(=O)C3(COc4cc5c(cc43)OCO5)c3ccccc32)CC1(C)C (centres unmarked) [Example 10.63, 1′-[(4-hydroxy-1,2,2,6,6-pentamethylpiperidin-4-yl)methyl]spiro[furo[2,3-f][1,3]benzodioxole-7,3′-indol]-2′(1′H)-one]
The melting point of the first is lower: 142 to 144 °C for the first, 210 to 214 °C for the second.

For `O=C1N(Cc2ccccn2)c2cccc(-c3cccnc3)c2C12COc1cc3c(cc12)CCO3` (centres unmarked) [Example 4.11, 4′-pyridin-3-yl-1′-(pyridin-2-ylmethyl)-5,6-dihydrospiro[benzo[1,2-b:5,4-b′]difuran-3,3′-indol]-2′(1′H)-one], the melting point was > 200 °C.
